The source of these data is ChEMBL document CHEMBL6134780, “Halogenated retinoid derivatives as dual RARα and RXRα modulators for treating acute promyelocytic leukemia cells” (Eur J Med Chem, 2024).

The source made the active and inactive calls. The calls are words filed in the database; no cut-off is given here.

The target of experiment [1] is T1, Retinoic acid receptor alpha (Homo sapiens) (UniProt P10276).
T1 sequence (whole entry): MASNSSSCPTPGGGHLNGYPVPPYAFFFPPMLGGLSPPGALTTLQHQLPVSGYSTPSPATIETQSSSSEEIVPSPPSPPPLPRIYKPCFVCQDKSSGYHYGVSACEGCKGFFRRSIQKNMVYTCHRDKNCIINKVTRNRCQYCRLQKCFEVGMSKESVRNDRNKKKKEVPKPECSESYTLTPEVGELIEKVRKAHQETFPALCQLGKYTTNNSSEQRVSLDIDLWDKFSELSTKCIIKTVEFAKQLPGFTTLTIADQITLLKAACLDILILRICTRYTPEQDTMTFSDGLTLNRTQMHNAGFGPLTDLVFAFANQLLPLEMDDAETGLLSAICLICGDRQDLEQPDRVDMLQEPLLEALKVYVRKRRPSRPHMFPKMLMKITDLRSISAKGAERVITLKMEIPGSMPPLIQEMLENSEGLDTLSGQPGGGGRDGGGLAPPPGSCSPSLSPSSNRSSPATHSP
Nature of the experiment: Agonist activity at full length RARalpha LBD (unknown origin) transfected in HEK293T cells co-transfected with pG5luc reporter and Renilla-luc assessed as transactivation at 0.5 to 1 uM incubated for 12 hrs by luciferase reporter gene assay. It is filed as cell-based. The note with it: filed as agonist, dose 0.5-1 µM.

Experiment [2] addresses T1, Retinoic acid receptor alpha (Homo sapiens). Nature of the experiment: Agonist activity at full length RARalpha LBD (unknown origin) transfected in HEK293T cells co-transfected with pG5luc reporter and Renilla-luc at 1 uM incubated for 12 hrs by luciferase reporter gene assay. The note with it: filed as agonist. It is filed as cell-based.
Experiment [3] concerns the target T2, Retinoic acid receptor gamma (Homo sapiens) (UniProt P13631).
T2 sequence (whole entry): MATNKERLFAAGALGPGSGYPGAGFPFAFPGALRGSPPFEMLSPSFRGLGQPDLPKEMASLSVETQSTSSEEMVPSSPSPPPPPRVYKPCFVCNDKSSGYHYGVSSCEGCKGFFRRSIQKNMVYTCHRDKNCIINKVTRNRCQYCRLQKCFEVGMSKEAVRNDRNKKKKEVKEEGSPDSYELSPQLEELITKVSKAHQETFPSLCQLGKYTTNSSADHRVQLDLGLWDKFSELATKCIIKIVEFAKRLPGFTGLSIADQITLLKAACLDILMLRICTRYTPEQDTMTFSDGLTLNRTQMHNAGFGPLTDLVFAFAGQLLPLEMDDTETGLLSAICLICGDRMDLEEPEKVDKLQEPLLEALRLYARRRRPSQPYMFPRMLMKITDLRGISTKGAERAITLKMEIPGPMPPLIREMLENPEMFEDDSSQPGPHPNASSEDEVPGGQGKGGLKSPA
Put plainly: Agonist activity at full length RARgamma LBD (unknown origin) transfected in HEK293T cells co-transfected with pG5luc reporter and Renilla-luc at 1 uM incubated for 12 hrs by luciferase reporter gene assay. It is filed as cell-based. Conditions: filed as agonist.

Experiment [4] deals with T3, Retinoic acid receptor beta (Homo sapiens) (UniProt P10826).
T3 sequence (whole entry): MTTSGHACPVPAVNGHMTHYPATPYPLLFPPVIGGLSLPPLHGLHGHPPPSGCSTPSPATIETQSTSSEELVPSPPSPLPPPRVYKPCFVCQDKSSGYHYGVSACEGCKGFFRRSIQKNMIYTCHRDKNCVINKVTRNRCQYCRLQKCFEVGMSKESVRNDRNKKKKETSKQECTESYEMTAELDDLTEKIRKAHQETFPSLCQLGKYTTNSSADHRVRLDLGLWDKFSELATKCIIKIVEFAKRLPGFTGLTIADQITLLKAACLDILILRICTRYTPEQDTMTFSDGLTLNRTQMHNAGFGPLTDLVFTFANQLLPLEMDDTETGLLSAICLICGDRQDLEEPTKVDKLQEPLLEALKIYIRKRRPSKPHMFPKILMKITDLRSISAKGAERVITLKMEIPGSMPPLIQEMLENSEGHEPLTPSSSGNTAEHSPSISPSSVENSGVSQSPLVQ
Nature of the experiment: Agonist activity at full length RARbeta LBD (unknown origin) transfected in HEK293T cells co-transfected with pG5luc reporter and Renilla-luc at 1 uM incubated for 12 hrs by luciferase reporter gene assay. It is filed as cell-based. Conditions: filed as agonist.

In the next experiment the test system is ATRA-resistant NB4-LR2. Nature of the experiment: Antiproliferative activity against human ATRA-resistant NB4-LR2 cells assessed as effect on cell viability up to 2 uM incubated for 3 days by CCK8 assay. It is filed as functional, cell-based. The note with it: time 3.0 day.
A further experiment relates to HEK293T. Put plainly: Agonist activity at full length RARalpha LBD R276E mutant (unknown origin) transfected in HEK293T cells co-transfected with pG5luc reporter and Renilla-luc at 1 uM incubated for 12 hrs by luciferase reporter gene assay. It is filed as cell-based. Conditions: Homo sapiens, filed as agonist.
The target of experiment [5] is T4, Retinoic acid receptor gamma (Homo sapiens, UniProt P13631).
T4 sequence (P13631 whole entry): T2 sequence (whole entry)
Put plainly: Agonist activity at Gal4-fused full length human RARgamma LBD transfected in HEK293T cells co-transfected with pG5luc reporter and Renilla-luc assessed as transactivation incubated for 12 hrs by dual luciferase reporter gene assay. The note with it: hek293t. It is filed as cell-based.

The subject of experiment [6] is NB-4. Put plainly: Antiproliferative activity against human NB4 cells assessed as inhibition of cell viability at 0.125 uM incubated for 3 days by CCK8 assay relative to control. It is filed as functional. The note with it: NB-4, 72 h, time 3 day.
Experiment [7] relates to NB-4. Nature of the experiment: Induction of cell differentiation in human NB4 cells assessed as NBT positive cells at 0.5 uM incubated for 6 days by Nitro Blue tetrazolium chloride based microscopic analysis (reference value: 0 %). It is filed as functional. The note with it: time 6 day.
In experiment [8] the test system is NB-4. Nature of the experiment: Induction of apoptosis in human NB4 cells assessed as early apoptotic cells at 1 uM incubated for 24 hrs by Annexin V-FITC/PI staining based flow cytometric analysis (reference value: 1.77 %). It is filed as functional.
Experiment [9] has as its system NB-4. Nature of the experiment: Induction of apoptosis in human NB4 cells assessed as late apoptotic cells at 1 uM incubated for 24 hrs by Annexin V-FITC/PI staining based flow cytometric analysis (reference value: 2.23 %). It is filed as functional.
Experiment [10] is described as follows: Induction of apoptosis in human ATRA-resistant NB4-LR2 cells assessed as early apoptotic cells at 1 uM incubated for 24 hrs by Annexin V-FITC/PI staining based flow cytometric analysis (reference value: 1.41 %). It is filed as functional.
Experiment [11] in a line: Induction of apoptosis in human ATRA-resistant NB4-LR2 cells assessed as late apoptotic cells at 1 uM incubated for 24 hrs by Annexin V-FITC/PI staining based flow cytometric analysis (reference value: 5.62 %). It is filed as functional.
Experiment [12] concerns NB-4. Put plainly: Cell cycle arrest in human NB4 cells assessed as accumulation of cells at G0/G1 phase at 1 uM incubated for 12 hrs by DAPI staining based flow cytometric analysis (reference value: 51 %). It is filed as functional.
Experiment [13] deals with NB-4. Nature of the experiment: Cell cycle arrest in human NB4 cells assessed as accumulation of cells at S phase at 1 uM incubated for 12 hrs by DAPI staining based flow cytometric analysis (reference value: 20 %). It is filed as functional.
Experiment [14] has as its system NB-4. Put plainly: Cell cycle arrest in human NB4 cells assessed as accumulation of cells at G2/M phase at 1 uM incubated for 12 hrs by DAPI staining based flow cytometric analysis (reference value: 26 %). It is filed as functional.
In experiment [15] the test system is NB-4. Nature of the experiment: Cell cycle arrest in human NB4 cells assessed as accumulation of cells at sub-G1 phase at 1 uM incubated for 12 hrs by DAPI staining based flow cytometric analysis (reference value: 2 %). It is filed as functional.
The nature of experiment [16]: Cell cycle arrest in human ATRA-resistant NB4-LR2 cells assessed as accumulation of cells at G0/G1 phase at 1 uM incubated for 12 hrs by DAPI staining based flow cytometric analysis (reference value: 42 %). It is filed as functional.
A short description of experiment [17]: Cell cycle arrest in human ATRA-resistant NB4-LR2 cells assessed as accumulation of cells at S phase at 1 uM incubated for 12 hrs by DAPI staining based flow cytometric analysis (reference value: 12 %). It is filed as functional.
A short description of experiment [18]: Cell cycle arrest in human ATRA-resistant NB4-LR2 cells assessed as accumulation of cells at G2/M phase at 1 uM incubated for 12 hrs by DAPI staining based flow cytometric analysis (reference value: 28 %). It is filed as functional.
A short description of experiment [19]: Cell cycle arrest in human ATRA-resistant NB4-LR2 cells assessed as accumulation of cells at sub-G1 phase at 1 uM incubated for 12 hrs by DAPI staining based flow cytometric analysis (reference value: 18 %). It is filed as functional.

As for `Cc1cc2c(cc1C(=O)/C(I)=C\c1ccc(C(=O)O)cc1)C(C)(C)CCC2(C)C`, in experiment [1], the result was Active.

On to `Cc1cc2c(cc1C(=O)/C=C/c1ccc(C(=O)O)cc1)C(C)(C)CCC2(C)C`, for which the result in experiment [2] was Active. Further, the Activity entry in experiment [3] and in experiment [4] was “Active; Poor Subtype Selectivity Observed” in each case.

Turning to `CC1(C)CCC(C)(C)c2cc(C(=O)Nc3ccc(C(=O)O)cc3)ccc21`, the outcome with ATRA-resistant NB4-LR2 was inactive. Also, in the experiment with HEK293T, the Activity result is reported as “Active; Partial Impairment Observed”. The EC50 result in [5] was “Not_determined(Unstable)”. The inhibition at 0.125 µM in the experiment with NB-4 [6] was approximately 40%.

`Cc1cc2c(cc1C(=O)/C(I)=C/c1ccc(C(=O)O)cc1)C(C)(C)CCC2(C)C`: the Activity in the experiment on NB-4 [7] was 78%; in experiment [1] it was “Active; Highly Raralpha Selective Agonistic Activity Observed”; in the experiment on NB-4 [8], 0.58%; with NB-4 [9], 4.24%; in [10], 1.1%; in experiment [11], 6.66%. Further, the Activity with NB-4 [12] was 63%; in the experiment with NB-4 [13], 11%; in the experiment with NB-4 [14], 24%; with NB-4 [15] it was 2%; in [16] it was 41%; in [17], 9%. Further, the Activity in [18] turned out to be 30%; in [19], 20%. In the experiment with NB-4 [6], the inhibition at 0.125 µM is approximately 40%.
